Measured values taken from PMC8636635 (Communications Biology, 2021).

How the values were obtained:
SARS-CoV-1 Protein E = SARS-CoV-1 Protein E (Severe acute respiratory syndrome-related coronavirus, UniProt P59637); format: cell-based
SARS-CoV-2 Protein E = SARS-CoV-2 Protein E (Severe acute respiratory syndrome coronavirus 2, UniProt P0DTC4); assay: two-electrode voltage clamp, X. laevis oocytes; conditions: read-out: % block at 10 μM
ORF7b = target: T1, ORF7b (Severe acute respiratory syndrome coronavirus 2, UniProt P0DTD8)
T1 construct: gene 7b
T1 sequence (P0DTD8 whole entry): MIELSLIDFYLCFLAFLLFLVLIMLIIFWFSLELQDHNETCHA

Chain of SARS-CoV-2 Protein E (P0DTC4 whole entry): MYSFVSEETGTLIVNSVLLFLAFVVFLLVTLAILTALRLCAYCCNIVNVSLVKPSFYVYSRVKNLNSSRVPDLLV
Chain of SARS-CoV-1 Protein E (P59637 whole entry, looked up): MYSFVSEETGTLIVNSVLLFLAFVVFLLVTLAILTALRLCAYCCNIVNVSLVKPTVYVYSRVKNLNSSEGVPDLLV

| Compound | % block (SARS-CoV-1 Protein E) | inhibition at 10 µM (SARS-CoV-2 Protein E) [%] | % reduction in current at 10 μM (ORF7b) [%] |
| --- | --- | --- | --- |
| C1C2CC3CC1CC(C2)C3 [adamantane] | adamantane that also blocked Protein E from SARS-CoV-1, but not that of SARS-CoV-2 |  |  |
| NC12CC3CC(CC(C3)C1)C2 [amantadine] |  | 77 |  |
| Cc1cc(O)c2c(c1)C(=O)c1cc(O)cc(O)c1C2=O [emodin] | HMA and emodin blocked the Protein E ion channels from both SARS-CoV-1 and -2 | 60 | 79 |
| N=C(N)NC(=O)c1nc(Cl)c(N2CCCCCC2)nc1N [hexamethylene-amiloride] | HMA and emodin blocked the Protein E ion channels from both SARS-CoV-1 and -2 | 50 |  |
| c1ccc2c(c1)Cc1ccccc1O2 [xanthene] |  | 80 | 47 |
